These results are taken from patent publication US20260274866A1, “PYRIDO[4,3-D]PYRIMIDINE DERIVATIVES AS MUTANT KRAS G12C INHIBITORS FOR THE TREATMENT OF CANCER” (Frontier Medicines Corporation, priority 2023, published 2026).

Bounds are passed on as bounds.

For this assay, the target named is T1, KRAS G12C (GMPPNP-loaded) and cRAF (Ras-binding domain) interaction (Homo sapiens, UniProt P01116, C118S/C51S/C80L/G12C).
T1 construct: truncated version comprising amino acids 1-169
T1 sequence (P01116 1-169 isoform P01116-2 G12C/C51S/C80L/C118S): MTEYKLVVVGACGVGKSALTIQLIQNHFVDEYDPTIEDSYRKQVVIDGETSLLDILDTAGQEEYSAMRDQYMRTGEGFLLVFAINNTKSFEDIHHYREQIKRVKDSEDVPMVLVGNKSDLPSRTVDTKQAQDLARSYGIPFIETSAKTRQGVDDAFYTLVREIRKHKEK
Kind of assay: AlphaScreen inhibition of KRAS G12C and cRAF binding. The assay is classed as biochemical. Particulars: KRAS G12C preloaded with GTP analogue GMPPNP, 2 hours preincubation. The protocol:
The AlphaScreen technology was used to determine IC50s for compound inhibition of KRAS G12C (present as the Cys-light (C51S, C80L and C118S), truncated version comprising amino acids 1-169) and cRAF interaction. Compounds were diluted in 100% DMSO and each compound concentration was spotted at 200 nl/well onto low volume, white 384 well plates. The KRAS G12C contained a biotin-AviTag and the cRaf, as Ras-binding domain (amino acids 50-131, RBD), was GST-tagged. KRAS G12C was preloaded with the GTP analogue Guanosine 5′-[β,γ-imido]triphosphate (GMPPNP). The KRAS G12C was diluted in 25 mM Hepes, pH 7.4, 150 mM NaCl, 5 mM MgCl2, 0.01% TritonX-100 and 10 μM GMPPNP and added at 10 ul/well to compound-spotted plates resulting in a DMSO concentration of 2%. Plates were incubated for 2 hours. A mixture of RBD and the AlphaScreen streptavidin donor and glutathione acceptor beads diluted in 25 mM Hepes, pH 7.4, 150 mM NaCl, 5 mM MgCl2, 0.01% TritonX-100 and 2% DMSO was then added at 10 ul/well and incubated for 60-90 minutes before the samples were read for emission at 570 nm after excitation of the donor beads at 680 nm. All incubations were performed at room temperature. The final top compound concentration was 50 μM with 1:3 titrations for 10-point dose response curves. Final assay conditions were 0.5 nM KRAS G12C, 0.75 nM RBD and 5 ug/ml each of AlphaScreen donor and acceptor beads. IC50s were determined using nonlinear regression fit of [inhibitor] vs. response (4 parameters).
A counter assay was also set up to rule out inhibitors of the AlphaScreen technology itself. Compound plates were incubated for 2 hours as above with buffer only. The AlphaScreen beads were added as above except biotin-AviTag-GST was substituted for the RBD. Samples were read and analyzed as above.
(In general: Bead proximity is the source of the signal in Alpha formats.)
With `C[C@H](/C=C/C(=O)N1CC[C@@H](N(C)c2nc(OC[C@@]34CCCN3C[C@H](F)C4)nc3c(F)c(-c4cccc5cccc(Cl)c45)ncc23)C1)N(C)C` [Compound 1], the IC50 lay in the range of 100 to 500 nM. In the case of `C[C@@H](/C=C/C(=O)N1CC[C@@H](N(C)c2nc(OC[C@@]34CCCN3C[C@H](F)C4)nc3c(F)c(-c4cccc5cccc(Cl)c45)ncc23)C1)N(C)C` [Compound 2], the IC50 was less than 10 nM. In the case of `CC(/C=C/C(=O)N1CCN(c2nc(OCC34CCCN3CCC4)nc3c2CCN(c2cccc4cccc(Cl)c24)C3)C[C@@H]1CC#N)N1CCOCC1` (stereo partly drawn) [Compound 3], the IC50 is 10 to 100 nM. In turn, `C[C@H](/C=C/C(=O)N1CCN(c2nc(OCC34CCCN3CCC4)nc3c2CCN(c2cccc4cccc(Cl)c24)C3)C[C@@H]1CC#N)N(C)C` [Compound 4] yielded an IC50 of less than 10 nM. The same measure for `C[C@@H](/C=C/C(=O)N1CCN(c2nc(OCC34CCCN3CCC4)nc3c2CCN(c2cccc4cccc(Cl)c24)C3)C[C@@H]1CC#N)N(C)C` [Compound 5]: 10 to 100 nM; for `C[C@H](/C=C/C(=O)N1CC[C@@H](N(C)c2nc(OC[C@@]34CCCN3C[C@H](F)C4)nc3c(F)c(-c4cccc5ccc(F)c(Cl)c45)ncc23)C1)N(C)C` [Compound 6]: 100 to 500 nM; for `C[C@H](/C=C/C(=O)N1CC[C@@H](N(C)c2nc(OC[C@@]34CCCN3C[C@H](F)C4)nc3c(F)c(-c4cccc5ccc(F)c(F)c45)ncc23)C1)N(C)C` [Compound 7, (R,E)-1-((R)-3-((7-(7,8-difluoronaphthalen-1-yl)-8-fluoro-2-(((2R,7aS)-2-fluorotetrahydro-1H-pyrrolizin-7a(5H)-yl)methoxy)pyrido[4,3-d]pyrimidin-4-yl)(methyl)amino)pyrrolidin-1-yl)-4-(dimethylamino)pent-2-en-1-one]: 100 to 500 nM. The same measure for `C[C@@H](/C=C/C(=O)N1C[C@H](F)[C@@H](N(C)c2nc(OC[C@@]34CCCN3C[C@H](F)C4)nc3c(F)c(-c4cccc5cccc(Cl)c45)ncc23)C1)N(C)C` [Compound 8]: 10 to 100 nM. Under `C[C@H](/C=C/C(=O)N1C[C@H](F)[C@@H](N(C)c2nc(OC[C@@]34CCCN3C[C@H](F)C4)nc3c(F)c(-c4cccc5cccc(Cl)c45)ncc23)C1)N(C)C` [Compound 9] stands 10 to 100 nM; under `C[C@@H](/C=C/C(=O)N1CC[C@@H](N(C)c2nc(OC[C@@]34CCCN3C[C@H](F)C4)nc3c(F)c(-c4cccc5ccc(F)c(F)c45)ncc23)C1)N(C)C` [Compound 10, (S,E)-1-((R)-3-((7-(7,8-difluoronaphthalen-1-yl)-8-fluoro-2-(((2R,7aS)-2-fluorotetrahydro-1H-pyrrolizin-7a(5H)-yl)methoxy)pyrido[4,3-d]pyrimidin-4-yl)(methyl)amino)pyrrolidin-1-yl)-4-(dimethylamino)pent-2-en-1-one], less than 10 nM.

Take `CC(/C=C/C(=O)N1CCN(c2nc(OC[C@@]34CCCN3C[C@H](F)C4)nc3c(F)c(-c4cccc5cccc(Cl)c45)ncc23)C[C@@H]1CC#N)N1CCOCC1` (stereo partly drawn) [Compound 11]: the IC50 was 10 to 100 nM. The same measure for `C[C@H](/C=C/C(=O)N1CC[C@@H](N(C)c2nc(OC[C@@]34CCCN3C[C@H](F)C4)nc3c(F)c(-c4cccc5cccc(Cl)c45)ncc23)C1)N1CCC1` [Compound 12]: 10 to 100 nM. Under `CO[C@H]1CCN(C(C)/C=C/C(=O)N2CCN(c3nc(OC[C@@]45CCCN4C[C@H](F)C5)nc4c(F)c(-c5cccc6ccc(F)c(Cl)c56)ncc34)C[C@@H]2CC#N)C1` (stereo partly drawn) [Compound 13] stands less than 10 nM; under `CO[C@@H]1CCN(C(C)/C=C/C(=O)N2CCN(c3nc(OC[C@@]45CCCN4C[C@H](F)C5)nc4c(F)c(-c5cccc6ccc(F)c(Cl)c56)ncc34)C[C@@H]2CC#N)C1` (stereo partly drawn) [Compound 14], less than 10 nM. The same measure for `CC(/C=C/C(=O)N1CCN(c2nc(OC[C@@]34CCCN3C[C@H](F)C4)nc3c(F)c(-c4cccc5cccc(Cl)c45)ncc23)C[C@@H]1CC#N)N1C[C@@H]2C[C@H]1CO2` (stereo partly drawn) [Compound 15]: 10 to 100 nM.

As to `CC(/C=C/C(=O)N1CCN(c2nc(OC[C@@]34CCCN3C[C@H](F)C4)nc3c(F)c(-c4cccc5cccc(Cl)c45)ncc23)C[C@@H]1CC#N)N1C[C@H]2C[C@@H]1CO2` (stereo partly drawn) [Compound 16], the 50% inhibitory concentration (IC50) is 10 to 100 nM. The same measure for `CC(/C=C/C(=O)N1CCN(c2nc(OC[C@@]34CCCN3C[C@H](F)C4)nc3c(F)c(-c4cccc5cccc(Cl)c45)ncc23)C[C@@H]1CC#N)N1[C@@H]2CC[C@H]1COC2` (stereo partly drawn) [Compound 17]: less than 10 nM. Under `C[C@@H](/C=C/C(=O)N1CC[C@@H](N(C)c2nc(OC[C@@]34CCCN3C[C@H](F)C4)nc3c(F)c(-c4cccc5ccc(F)c(Cl)c45)ncc23)C1)N(C)C` [Compound 18] stands no less than 500 nM.

As to `CO[C@H]1CCN([C@@H](C)/C=C/C(=O)N2CCN(c3nc(OC[C@@]45CCCN4C[C@H](F)C5)nc4c(F)c(-c5cccc6ccc(F)c(Cl)c56)ncc34)C[C@@H]2CC#N)C1` [Compound 19, 2-((S)-4-(7-(8-chloro-7-fluoronaphthalen-1-yl)-8-fluoro-2-(((2R,7aS)-2-fluorotetrahydro-1H-pyrrolizin-7a(5H)-yl)methoxy)pyrido[4,3-d]pyrimidin-4-yl)-1-((S,E)-4-((S)-3-methoxypyrrolidin-1-yl)pent-2-enoyl)piperazin-2-yl)acetonitrile], the half-inhibitory concentration (IC50) lay in the range of 10 to 100 nM. The same measure for `CO[C@H]1CCN([C@H](C)/C=C/C(=O)N2CCN(c3nc(OC[C@@]45CCCN4C[C@H](F)C5)nc4c(F)c(-c5cccc6ccc(F)c(Cl)c56)ncc34)C[C@@H]2CC#N)C1` [Compound 20, 2-((S)-4-(7-(8-chloro-7-fluoronaphthalen-1-yl)-8-fluoro-2-(((2R,7aS)-2-fluorotetrahydro-1H-pyrrolizin-7a(5H)-yl)methoxy)pyrido[4,3-d]pyrimidin-4-yl)-1-((R,E)-4-((S)-3-methoxypyrrolidin-1-yl)pent-2-enoyl)piperazin-2-yl)acetonitrile]: less than 10 nM; for `C[C@H](/C=C/C(=O)N1CCN(c2nc(OCC34CCCN3CCC4)nc3c2CCN(c2cccc4cccc(Cl)c24)C3)C[C@@H]1CC#N)N1CCOCC1` [Compound 21]: 10 to 100 nM. The same measure for `C[C@@H](/C=C/C(=O)N1CCN(c2nc(OCC34CCCN3CCC4)nc3c2CCN(c2cccc4cccc(Cl)c24)C3)C[C@@H]1CC#N)N1CCOCC1` [Compound 22]: 10 to 100 nM.

As to `C[C@H](/C=C/C(=O)N1CCN(c2nc(OC[C@@]34CCCN3C[C@H](F)C4)nc3c(F)c(-c4cccc5cccc(Cl)c45)ncc23)C[C@@H]1CC#N)N1CCOCC1` [Compound 23], the IC50 fell in the range of 10 to 100 nM.

The compound `C[C@@H](/C=C/C(=O)N1CCN(c2nc(OC[C@@]34CCCN3C[C@H](F)C4)nc3c(F)c(-c4cccc5cccc(Cl)c45)ncc23)C[C@@H]1CC#N)N1CCOCC1` [Compound 24] came in with an IC50 of 10 to 100 nM. Under `C[C@H](/C=C/C(=O)N1CCN(c2nc(OC[C@@]34CCCN3C[C@H](F)C4)nc3c(F)c(-c4cccc5cccc(Cl)c45)ncc23)C[C@@H]1CC#N)N1C[C@H]2C[C@@H]1CO2` [Compound 25] stands 10 to 100 nM; under `C[C@@H](/C=C/C(=O)N1CCN(c2nc(OC[C@@]34CCCN3C[C@H](F)C4)nc3c(F)c(-c4cccc5cccc(Cl)c45)ncc23)C[C@@H]1CC#N)N1C[C@H]2C[C@@H]1CO2` [Compound 26], 10 to 100 nM. Under `CC(/C=C/C(=O)N1CCN(c2nc(OC[C@@]34CCCN3C[C@H](F)C4)nc3c(F)c(-c4cccc5cccc(Cl)c45)ncc23)C[C@@H]1CC#N)N1C2COCC1C2` (stereo partly drawn) [Compound 27] stands 10 to 100 nM.

For orientation: IC50 means the concentration that inhibits the measured activity by half. Lower therefore signals higher potency.
